Data from patent EP0314302A2, “Herbicidal o-carbomethoxy-sulfonylureas” (E.I. DU PONT DE NEMOURS AND COMPANY, priority 1987, dated 1989).

Columns and labels:
[1] = test system: Bindweed; experiment: Test 9 postemergence; format: in vivo, Convolvulus spp; conditions: 16 g/ha, scale 0-100
Protocol: Plastic windowsill pots containing planting medium were seeded with bahiagrass, bindweed (Convolvulus spp), guinea grass (Panicum maximum), large crabgrass (Digitaria sanguinalis) and pigweed (Amaranthus spp). Individual 15-cm plastic pots contained sandbur (Cenchrus echinatus), Mikania cordata, Boston fern (Nephrolepis exalata), quackgrass (Agropyron repens), elephantgrass (Pennisetum purpureum) and sowthistle (Sonchus spp) plants.
Plants were treated postemergence with Compound I formulated in a non-phytotoxic solvent. Plants were visually rated 22 days after treatment (DAT). Injury and weed control ratings were based on the scale of 0 to 100 where 0 = no effect, 20 = minimal control and 100 = complete control.

[2] = test system: Ball mustard; experiment: Test 7 postemergence; format: in vivo, Neslia paniculata; conditions: scale 0-100
Protocol: (§1) Individual 11.4-cm plastic pots filled with planting medium were seeded with rape, wild radish (Raphanus raphanistruna). tansy mustard (Descurainia pinnata), ball mustard (Neslia paniculata), black mustard (Brassica nigra), yellow mustard, brown mustard, lentils, safflower, flax, sunflower, peanut, vetch, alfalfa, field bean, pea, violet (Viola spp), Kochia (Kochia spp), Russian thistle (Salsola spp), Matricaria spp, groundsel (Senecio spp), shepherdspurse (Capsella bursa-pastoris), nightshade (Solanum spp), sowthistle (Sonchus spp), sugar beet, wheat, "Bonanza" barley and "Morex" barley, Kentucky bluegrass (Poa pratensis), red clover (Trifolium pratense), dandelion (Taraxacum spp) and buckhorn plantain (Plantago lanceolata).
(§2) Plants were treated postemergence with the compound formulated with a non-phytotoxic carrier. Plants were visually rated 18 days after treatment (DAT). Response ratings were based on the scale of 0 to 100 where 0 = no effect, 20 = minimal injury and 100 = complete control.

[3] = test system: Groundsel; experiment: Test 7 postemergence; format: in vivo, Senecio spp; conditions: scale 0-100
Protocol: as §1, §2

[4] = test system: Large crabgrass; experiment: Test 8 postemergence safety to pineapple, turfs and weed control; format: in vivo; conditions: scale 0-100
From the text: (§3) The object of this test was to evaluate the compound of this invention for postemergence safety to pineapple, turfs and weed control. Climax timothy, Kentucky bluegrass, forage fescue, Kentucky fescue, bermudagrass, bentgrass, annual bluegrass, bahiagrass, purple nutsedge, yellow nutsedge, large crabgrass, perennial ryegrass, annual ryegrass, galium and pineapple were sprayed postemergence with the compound in a non-phytotoxic solvent. Plants were visually rated 36 days after treatment (DAT). Injury ratings were based on the scale of 0 to 100 where 0 = no effect, 20 = minimal effect and 100 = complete control.

[5] = test system: Kentucky fescue; experiment: as above; format: in vivo; conditions: scale 0-100
From the text: as §3

[6] = test system: Annual ryegrass; experiment: as above; format: in vivo; conditions: scale 0-100
From the text: as §3

[7] = test system: Galium; experiment: as above; format: in vivo; conditions: scale 0-100
From the text: as §3

[8] = test system: Forage fescue; experiment: as above; format: in vivo; conditions: scale 0-100
From the text: as §3

[9] = test system: Climax timothy; experiment: as above; format: in vivo; conditions: scale 0-100
From the text: as §3

[10] = test system: Yellow nutsedge; experiment: as above; format: in vivo; conditions: scale 0-100
From the text: as §3

[11] = test system: Bahiagrass; experiment: as above; format: in vivo; conditions: scale 0-100
From the text: as §3

[12] = test system: Purple nutsedge; experiment: as above; format: in vivo; conditions: scale 0-100
From the text: as §3

[13] = test system: Kentucky bluegrass; experiment: as above; format: in vivo; conditions: scale 0-100
From the text: as §3

[14] = test system: Bentgrass; experiment: as above; format: in vivo; conditions: scale 0-100
From the text: as §3

[15] = test system: Bermudagrass; experiment: as above; format: in vivo; conditions: scale 0-100
From the text: as §3

[16] = test system: Perennial ryegrass; experiment: as above; format: in vivo; conditions: scale 0-100
From the text: as §3

[17] = test system: Wild radish; experiment: Test 10 postemergence safety to crops and weed control; format: in vivo, Raphanus raphanistrum; conditions: 16 g/ha, scale 0-100
Protocol: The object of these tests was to evaluate the compound of this invention for postemergence safety to crops and weed control. Seedling and budded Macedine grapes were grown in 11.4-cm pots. Flax, green foxtail (Setaria viridis), "Morex" barley, wild oats (Avena fatua), "Era" wheat, annual ryegrass (Lolium multiflorum), wild radish (Raphanus raphanistrum), rape, sunflower, chickweed (Stellaria media) and wild buckwheat (Polygonum convolvulus) were seeded in windowsill pots.
The plants were sprayed postemergence with Compound I in a non-phytotoxic solvent. Plants were visually rated 15 and 27 days after treatment (DAT). Injury and weed control ratings were based on the scale of 0 to 100 where 0 = no effect, 20 minimal control and 100 = complete control.

[18] = test system: Yellow nutsedge; experiment: Test 11 citrus pots, postemergence to the weeds; format: in vivo, Cyperus esculentus; conditions: Postemergence 32 g/ha, 0.25% X-77 surfactant, scale 0-100
Protocol: (§4) Budded citrus seedlings were planted in 30-liter plastic pots which were also seeded with sandbur, guineagrass, narrowleaf panicum, common ragweed, yellow nutsedge, purple nutsedge and bindweed. Compound I was applied preemergence and postemergence to the weeds. Treatments were sprayed to simulate the trunk-to-trunk herbicide application method used in some citrus groves. The compound was also applied postemergence to weeds grown in windowsill flats. The flats were filled with planting medium and seeded with morningglory (Ipomoea spp.). purple nutsedge (Cyperus rotundus), pigweed (Amaranthus spp.), bindweed (Convolvulus spp.), narrowleaf panicum (Panicum maximum), common ragweed (Ambrosia artemisiifolia), sandbur (Cenchrus echinatus), itchgrass (Rottboellia exaltata), johnsongrass (Sorghum halepense), guineagrass (Panicum maximum), smooth crabgrass (Digitaria ischaemum), broadleaf signalgrass (Brachiaria platyphylla), bermudagrass (Cynodon dactylon), goosegrass (Eleusine indica), large crabgrass (Digitaria sanguinalis) and yellow nutsedge (Cyperus esculentus).
(§5) The compound was formulated and sprayed with 0.25% X-77 surfactant in water. Plants were visually rated 21 and 29 days after treatment and compared with appropriate controls. Injury ratings were based on the scale of 0 to 100, where 0 indicates no effect, 20 indicates minimum effect and 100 indicates complete control. […]

[19] = test system: Common ragweed; experiment: Test 11 citrus pots, postemergence to the weeds; format: in vivo, Ambrosia artemisiifolia; conditions: Postemergence 32 g/ha, 0.25% X-77 surfactant, scale 0-100
Protocol: as §4, §5

COC(=O)c1cccnc1S(=O)(=O)NC(=O)Nc1nc(OC)cc(OC)n1 [Compound I, 2-[[(4,6-dimethoxypyrimidin-2-yl)aminocarbonyl]aminosulfonyl]-3-pyridinecarboxylic acid, methyl ester]
Plant Injury Rating 22 DAT [1]: 70
Plant Injury Rating 18 DAT ([2]; 16 g/ha): 100
Plant Injury Rating 18 DAT ([2]; 32 g/ha): 100
Plant Injury Rating 18 DAT ([3]; 16 g/ha): 100
Plant Injury Rating 18 DAT ([3]; 32 g/ha): 100
Plant Injury Rating 36 DAT ([4]; 16 g/ha): 60
Plant Injury Rating 36 DAT ([4]; 32 g/ha): 80
Plant Injury Rating 36 DAT ([5]; 16 g/ha): 100
Plant Injury Rating 36 DAT ([5]; 32 g/ha): 100
Plant Injury Rating 36 DAT ([6]; 16 g/ha): 100
Plant Injury Rating 36 DAT ([6]; 32 g/ha): 100
Plant Injury Rating 36 DAT ([7]; 16 g/ha): 100
Plant Injury Rating 36 DAT ([7]; 32 g/ha): 100
Plant Injury Rating 36 DAT ([8]; 16 g/ha): 100
Plant Injury Rating 36 DAT ([8]; 32 g/ha): 100
Plant Injury Rating 36 DAT ([9]; 16 g/ha): 100
Plant Injury Rating 36 DAT ([9]; 32 g/ha): 100
Plant Injury Rating 36 DAT ([10]; 16 g/ha): 60
Plant Injury Rating 36 DAT ([10]; 32 g/ha): 100
Plant Injury Rating 36 DAT ([11]; 16 g/ha): 70
Plant Injury Rating 36 DAT ([11]; 32 g/ha): 100
Plant Injury Rating 36 DAT ([12]; 16 g/ha): 50
Plant Injury Rating 36 DAT ([12]; 32 g/ha): 100
Plant Injury Rating 36 DAT ([13]; 16 g/ha): 100
Plant Injury Rating 36 DAT ([13]; 32 g/ha): 100
Plant Injury Rating 36 DAT ([14]; 16 g/ha): 70
Plant Injury Rating 36 DAT ([14]; 32 g/ha): 100
Plant Injury Rating 36 DAT ([15]; 16 g/ha): 0
Plant Injury Rating 36 DAT ([15]; 32 g/ha): 0
Plant Injury Rating 36 DAT ([16]; 16 g/ha): 100
Plant Injury Rating 36 DAT ([16]; 32 g/ha): 100
Plant Injury Rating 15 DAT [17]: 100
Injury ratings [18]: 100
Injury ratings [19]: 0
